The values below come from patent publication US8058258B2, “Methods for cancer therapy and stem cell modulation” (Agency for Science, Technology and Research, priority 2006, dated 2011).

Experiment [1] relates to caspase 9, and poly(ADP-ribose) polymerase (PARP). The experiment is described as follows: Western blot of caspase and PARP cleavage. It counts as cell-based. The settings on record: 3-deazaneplanocin-treated cells (MCF-7, HCT116; 5 μM, 48 and 72 h). The protocol: FIG. 3E depicts a Western blot analysis of the activation of caspases. MCF-7 and HCT16 cells were treated with 5 μM 3-deazaneplanocin (“DZNep”) for 48 and 72 h before analysis of whole-cell extracts. Activation of caspases and poly(ADP-ribose) polymerase (“PARP”) was detected after 3-deazaneplanocin treatment. β-Actin (“Actin”) was used as a loading control.
Cell pellets were first lysed in RadioImmuno Precipitation Assay (RIPA) buffer, consisting of an aqueous solution of 25 mM Tris-HCl pH 7.6, 150 mM NaCl, 1% Nonidet-P 40 (NP-40), 1% sodium deoxycholate and 0.1% sodium dodecylsulfate (SDS), before further sonicated using a tissue homogeniser to release all the proteins. Equal amounts of protein were separated on SDS-polyacrylamide gels and transferred to polyvinylidene difluoride (PVDF) membranes. The blots were probed with antibodies against: EED (07-368), SUZ12 (07-379), SUV39H1 (07-550), BMI1 (05-637), tri-methylated H3-K27 (07-449), tri-methylated H3-K9 (07-442) and Acetyl-Histone H3 (06-599), and were purchased from Upstate. EZH2 (AC22) and Histone H3 (3H1) were from Cell Signaling. Antibodies against DNA methyl-transferases DNMT1 and DNMT3B were purchased from Alexis Biochemicals. […]
For orientation: In western blotting, separated proteins are transferred to a membrane and probed.

For another experiment, the system named is SK-BR-3 cells. Nature of the experiment: Apoptotic response time course by FACS analysis. It counts as cell-based, human. The note with it: SK-BR-3, 5 μM, time course to 120 hours. As for the experimental part: (§1) FIG. 6A depicts an analysis of the breast cancer cell lines MCF-7, MB-468, SK-BR-3, MB-231, T47D and BT549 for an apoptotic effect of 5 μM 3-deazaneplanocin over a time frame of 120 hours. Cell death was measured by FACS analysis. Data presented are the average of three independent experiments.
(§2) Cells were trypsinised and washed with PBS and fixed in 70% ethanol and processed for propidium iodide staining and FACS analysis. For the caspase 3 activity assay and mitochondrial membrane potential detection, cells were stained with anti-active caspase 3 and JC-1, respectively, according to the manufacturer's instructions (BD Bioscience).
(§3) To extend the observation seen in MCF-7 cells, additional breast cancer cell lines were screened, including MB-468, SK-BR-3, MB-231, T47D and BT549. […] To identify the PRC2 target genes associated with the cellular sensitivity to 3-deazaneplanocin, the array analysis was performed in these breast cancer cell lines before and after 3-deazaneplanocin treatment and the expression of the 47 identified PRC2 targets profiled. It was reasoned that some the PRC2 target genes might be differentially expressed between the sensitive and resistant cell lines, which might confer the distinct sensitivity to 3-deazaneplanocin. […] Both the real time and conventional RT-PCR analysis of the 4 gene set confirmed the array data (FIGS. 6D & 6E). […]
For orientation: In flow cytometry, cells or beads pass a laser one at a time.

A further experiment deals with T47D cells. The experiment is described as follows: Apoptotic response time course by FACS analysis. The class given is cell-based, human. The note with it: 5 μM, time course to 120 hours. The protocol: as §1, §2, §3

`Nc1nccc2c1ncn2C1C=C(CO)C(O)C1O` (stereo not drawn) [3-deazaneplanocin, 5-(4-amino-1H-imidazo[4,5-c]pyridin-1-yl)-3-(hydroxymethyl)-3-cyclopentene-1,2-diol]: in experiment [1], the “cleavage of caspase 9, and poly(ADP-ribose) polymerase (PARP)” value is on record as “easily detectable”. Further, the “sensitivity to 3-deazaneplanocin-induced cell death” value in the experiment on SK-BR-3 cells and in the experiment with T47D cells was “highly susceptible” each time.
